# Columns and labels:
# PBMC [1] = test: PIF and analogues on release of cytokines +/- platebound mAbCD3 (Table 4); type: cell-based; design: IL-1β / TNFa / IL-4 / IL-5 / IL-6 / IL-10 / GM-CSM / IFN-g: unit not given here
# PBMC [2] = test: FITC-labeled PIF binding to PBMC subpopulations (flow cytometry); design: species or system human; conditions: 0.75 to 48.19 μM, 1 h room temperature
# Experimental: Expression of PIF-1(15) (SEQ ID NO:1), receptor following PHA induced PBMC proliferation CD-4 T cells; CD-8 T cells; NK cell and B cells (unstimulated-top); (PHA stimulated-bottom). Flow cytometry analysis of PBMC following exposure to FITC sPIF-1(15) (SEQ ID NO:13) % expression was determined in PBMC subtypes before and after exposure to 1 ug/ml PHA for 24 hours.
# Human PBMC were isolated by the Ficoll method. FITC-labeled nPIF-115 (SEQ ID NO: 1) and (FITC)-labeled scrPIF-1 (SEQ ID NO:5) and match-size irrelevant peptide (FITC)-labeled negative controls negPIF-1(15) (SEQ ID NO:11), were dissolved in PBS at concentrations ranging from 0.75 to 48.19 μM, and were incubated with 500,000 lymphocytes for 1 h at room temperature. The cells were washed 6 times with PBS and resuspended in 500 μl of the same buffer. T-cells and monocytes identification was performed in independent experiments by incubation with anti-CD3 and anti-CD14 antibody-phycoerithryn (PE) labeled. nPIF-115 (SEQ ID NO: 1) binding to PBMC was determined by flow cytometry. In addition, rosettes formed by T cell-platelets were detected by flow cytometry using anti-CD3 antibody-PE and anti-CD41a antibody-FITC (all antibodies were from Pharmingen Inc.).
# Using flow cytometry fluoroscein-labeled sPIF-115 (SEQ ID NO: 13) binding to immune cells was examined on resting PBMC.
# PBMC [3] = test: Time-dependent cytokine secretion by PBMC (Table 3); type: cell-based, human; conditions: substance alone
# Experimental: Detailed time dependent and multiple controls were used the secretion of several cytokines by PBMC (IL-2, IL-5, IL-8, GM-CSF, IL-4, IL-10, TNF-α, IFN-γβ, IL-1 and IL-6) were measured. […] By 4 hours, sPIF-1 blocked TNF alpha with recovery by 24 hours. Also INFgamma secretion initiated only after 48 hours. […] Effects on cytokines was already noted at 0.7 nM. Similar effects were found also with other mitogens LPS and PHA when PIF-1 was tested.
# PBMC [4] = test: PIF-1 effects on cytokine expression in patient and control PBMC (Table 7); type: cell-based, human; conditions: PHA +, PIF-115 −
# epithelial cells = test: PIF binding to endometrial epithelial cells (MaBCD2 staining); design: species or system human; conditions: compared to non-relevant IgG
# Experimental: In addition, to compare the recovery of β-3 integrin expression with PIF effects described after cultured hEEC in a free-fetal bovine serum (FBS) medium some cells were cultured again in FBS-medium. […] PIF binding to epithelial cells was also examined. Binding was examined using MaBCD2 staining.
substance,measurement,setting,value
MVRIK [sPIF-1(5)],GM-CSM,"PBMC [1]; C- (platebound mAbCD3), /1",26.8
same,IFN-g,"PBMC [1]; C- (platebound mAbCD3), /1",98.2
same,IL-1β,"PBMC [1]; C- (platebound mAbCD3), /1",10.7
same,IL-2,"PBMC [1]; C- (platebound mAbCD3), /1",19.2
same,IL-4,"PBMC [1]; C- (platebound mAbCD3), /1",16.93
same,IL-5,"PBMC [1]; C- (platebound mAbCD3), /1",0
same,IL-6,"PBMC [1]; C- (platebound mAbCD3), /1",221.8
same,IL-8,"PBMC [1]; C- (platebound mAbCD3), /1",>5000
same,IL-10,"PBMC [1]; C- (platebound mAbCD3), /1",68.5
same,TNFa,"PBMC [1]; C- (platebound mAbCD3), /1",142.8
same,GM-CSM,"PBMC [1]; C- (platebound mAbCD3), /50",20.7
same,IFN-g,"PBMC [1]; C- (platebound mAbCD3), /50",81.2
same,IL-1β,"PBMC [1]; C- (platebound mAbCD3), /50",5.3
same,IL-2,"PBMC [1]; C- (platebound mAbCD3), /50",20.0
same,IL-4,"PBMC [1]; C- (platebound mAbCD3), /50",0
same,IL-5,"PBMC [1]; C- (platebound mAbCD3), /50",0
same,IL-6,"PBMC [1]; C- (platebound mAbCD3), /50",178.9
same,IL-8,"PBMC [1]; C- (platebound mAbCD3), /50",>5000
same,IL-10,"PBMC [1]; C- (platebound mAbCD3), /50",57.2
same,TNFa,"PBMC [1]; C- (platebound mAbCD3), /50",81.1
same,GM-CSM,"PBMC [1]; U- (no mAbCD3), /1",0
same,IFN-g,"PBMC [1]; U- (no mAbCD3), /1",0
same,IL-1β,"PBMC [1]; U- (no mAbCD3), /1",0
same,IL-2,"PBMC [1]; U- (no mAbCD3), /1",0
same,IL-4,"PBMC [1]; U- (no mAbCD3), /1",0
same,IL-5,"PBMC [1]; U- (no mAbCD3), /1",0
same,IL-6,"PBMC [1]; U- (no mAbCD3), /1",28.9
same,IL-8,"PBMC [1]; U- (no mAbCD3), /1",763.6
same,IL-10,"PBMC [1]; U- (no mAbCD3), /1",0
same,TNFa,"PBMC [1]; U- (no mAbCD3), /1",0
same,GM-CSM,"PBMC [1]; U- (no mAbCD3), /50",0
same,IFN-g,"PBMC [1]; U- (no mAbCD3), /50",0
same,IL-1β,"PBMC [1]; U- (no mAbCD3), /50",0
same,IL-2,"PBMC [1]; U- (no mAbCD3), /50",0
same,IL-4,"PBMC [1]; U- (no mAbCD3), /50",0
same,IL-5,"PBMC [1]; U- (no mAbCD3), /50",0
same,IL-6,"PBMC [1]; U- (no mAbCD3), /50",37.6
same,IL-8,"PBMC [1]; U- (no mAbCD3), /50",786.4
same,IL-10,"PBMC [1]; U- (no mAbCD3), /50",0
same,TNFa,"PBMC [1]; U- (no mAbCD3), /50",0
same,effect on cytokine secretion,"PBMC [1]; following exposure to CD3Mab, dose dependent",mild
PGSA [sPIF-1(4)],GM-CSM,"PBMC [1]; C- (platebound mAbCD3), /1",13.7
same,IFN-g,"PBMC [1]; C- (platebound mAbCD3), /1",81.3
same,IL-1β,"PBMC [1]; C- (platebound mAbCD3), /1",6.0
same,IL-2,"PBMC [1]; C- (platebound mAbCD3), /1",24.0
same,IL-4,"PBMC [1]; C- (platebound mAbCD3), /1",0
same,IL-5,"PBMC [1]; C- (platebound mAbCD3), /1",0
same,IL-6,"PBMC [1]; C- (platebound mAbCD3), /1",233.6
same,IL-8,"PBMC [1]; C- (platebound mAbCD3), /1",>5000
same,IL-10,"PBMC [1]; C- (platebound mAbCD3), /1",44.1
same,TNFa,"PBMC [1]; C- (platebound mAbCD3), /1",68.3
same,GM-CSM,"PBMC [1]; C- (platebound mAbCD3), /50",27.3
same,IFN-g,"PBMC [1]; C- (platebound mAbCD3), /50",145.4
same,IL-1β,"PBMC [1]; C- (platebound mAbCD3), /50",7.3
same,IL-2,"PBMC [1]; C- (platebound mAbCD3), /50",36.2
same,IL-4,"PBMC [1]; C- (platebound mAbCD3), /50",17.8
same,IL-5,"PBMC [1]; C- (platebound mAbCD3), /50",8.6
same,IL-6,"PBMC [1]; C- (platebound mAbCD3), /50",270.1
same,IL-8,"PBMC [1]; C- (platebound mAbCD3), /50",>5000
same,IL-10,"PBMC [1]; C- (platebound mAbCD3), /50",82.5
same,TNFa,"PBMC [1]; C- (platebound mAbCD3), /50",299.9
same,GM-CSM,"PBMC [1]; U- (no mAbCD3), /1",0
same,IFN-g,"PBMC [1]; U- (no mAbCD3), /1",0
same,IL-1β,"PBMC [1]; U- (no mAbCD3), /1",0
same,IL-2,"PBMC [1]; U- (no mAbCD3), /1",0
same,IL-4,"PBMC [1]; U- (no mAbCD3), /1",0
same,IL-5,"PBMC [1]; U- (no mAbCD3), /1",0
same,IL-6,"PBMC [1]; U- (no mAbCD3), /1",32.9
same,IL-8,"PBMC [1]; U- (no mAbCD3), /1",809.3
same,IL-10,"PBMC [1]; U- (no mAbCD3), /1",0
same,TNFa,"PBMC [1]; U- (no mAbCD3), /1",0
same,GM-CSM,"PBMC [1]; U- (no mAbCD3), /50",0
same,IFN-g,"PBMC [1]; U- (no mAbCD3), /50",0
same,IL-1β,"PBMC [1]; U- (no mAbCD3), /50",0
same,IL-2,"PBMC [1]; U- (no mAbCD3), /50",0
same,IL-4,"PBMC [1]; U- (no mAbCD3), /50",0
same,IL-5,"PBMC [1]; U- (no mAbCD3), /50",0
same,IL-6,"PBMC [1]; U- (no mAbCD3), /50",33.4
same,IL-8,"PBMC [1]; U- (no mAbCD3), /50",1079.9
same,IL-10,"PBMC [1]; U- (no mAbCD3), /50",0
same,TNFa,"PBMC [1]; U- (no mAbCD3), /50",0
same,effect on IL6 and 8,PBMC [1]; non-stimulated PBMC,stimulatory effect
"GMRELQRSANK [negPIF-1(15), reference compound]",labeling of T cell-platelet rosettes by FITC-labeled peptide,PBMC [2],not labeled
"phytohemmaglutinin [PHA, reference compound]",GM-CSF,PBMC [3]; 4 h post induction,60.4 pg/mL
same,IFN-y,PBMC [3]; 4 h post induction,0 pg/mL
same,IL-1β,PBMC [3]; 4 h post induction,891.2 pg/mL
same,IL-2,PBMC [3]; 4 h post induction,28.7 pg/mL
same,IL-4,PBMC [3]; 4 h post induction,0 pg/mL
same,IL-5,PBMC [3]; 4 h post induction,0 pg/mL
same,IL-6,PBMC [3]; 4 h post induction,7045.0 pg/mL
same,IL-8,PBMC [3]; 4 h post induction,0 pg/mL
same,IL-10,PBMC [3]; 4 h post induction,13.3 pg/mL
same,TNF-α,PBMC [3]; 4 h post induction,18829.1 pg/mL
same,GM-CSF,PBMC [3]; 24 h post induction,60.0 pg/mL
same,IFN-y,PBMC [3]; 24 h post induction,1728.8 pg/mL
same,IL-1β,PBMC [3]; 24 h post induction,5010.5 pg/mL
same,IL-2,PBMC [3]; 24 h post induction,2800.6 pg/mL
same,IL-4,PBMC [3]; 24 h post induction,60.0 pg/mL
same,IL-5,PBMC [3]; 24 h post induction,125.0 pg/mL
same,IL-6,PBMC [3]; 24 h post induction,>5200 pg/mL
same,IL-8,PBMC [3]; 24 h post induction,>6330 pg/mL
same,IL-10,PBMC [3]; 24 h post induction,1411.5 pg/mL
same,TNF-α,PBMC [3]; 24 h post induction,>11390 pg/mL
same,GM-CSF,PBMC [3]; 48 h post induction,0 pg/mL
same,IFN-y,PBMC [3]; 48 h post induction,0 pg/mL
same,IL-1β,PBMC [3]; 48 h post induction,0 pg/mL
same,IL-2,PBMC [3]; 48 h post induction,0 pg/mL
same,IL-4,PBMC [3]; 48 h post induction,0 pg/mL
same,IL-5,PBMC [3]; 48 h post induction,0 pg/mL
same,IL-6,PBMC [3]; 48 h post induction,0 pg/mL
same,IL-8,PBMC [3]; 48 h post induction,5634.0 pg/mL
same,IL-10,PBMC [3]; 48 h post induction,0 pg/mL
same,TNF-α,PBMC [3]; 48 h post induction,0 pg/mL
same,GM-CSF,PBMC [3]; 96 h post induction,0 pg/mL
same,IFN-y,PBMC [3]; 96 h post induction,0 pg/mL
same,IL-1β,PBMC [3]; 96 h post induction,0 pg/mL
same,IL-2,PBMC [3]; 96 h post induction,0 pg/mL
same,IL-4,PBMC [3]; 96 h post induction,0 pg/mL
same,IL-5,PBMC [3]; 96 h post induction,0 pg/mL
same,IL-6,PBMC [3]; 96 h post induction,0 pg/mL
same,IL-8,PBMC [3]; 96 h post induction,>6330 pg/mL
same,IL-10,PBMC [3]; 96 h post induction,0 pg/mL
same,TNF-α,PBMC [3]; 96 h post induction,0 pg/mL
same,IL-10,PBMC [4]; control,25.72 % of total PBMC in scatter gate
same,TH1/TH2,PBMC [4]; control,0.68
same,TNFα,PBMC [4]; control,17.43 % of total PBMC in scatter gate
same,IL-10,PBMC [4]; patient,24.76 % of total PBMC in scatter gate
same,TH1/TH2,PBMC [4]; patient,0.57
same,TNFα,PBMC [4]; patient,14.23 % of total PBMC in scatter gate
SGIVIYQYMDDRYVGSDL [sPIF-3(18)],binding to epithelial cells,epithelial cells,mild
